Results: PubChem BioAssay (NCI)
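Five compound concentrations were applied to cells in 96-well plates for 48 hours; endpoints were derived by simple linear interpolation of the resulting dose-response curve. Here, GI50 denotes the concentration required for 50% inhibition of growth. Definition used: TGI = concentration required for complete inhibition of growth.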

Legend:
Assay in all cases: growth of human tumour cells (NCI), 48 h
786-0 renal = system: 786-0 renal
A498 renal = system: A498 renal
A549 NSCLC = system: A549 NSCLC
ACHN renal = system: ACHN renal
BT-549 breast = system: BT-549 breast
CAKI-1 renal = system: CAKI-1 renal
CCRF-CEM leukemia = system: CCRF-CEM leukemia
COLO 205 colon = system: COLO 205 colon
DU-145 prostate = system: DU-145 prostate
EKVX NSCLC = system: EKVX NSCLC
HCC-2998 colon = system: HCC-2998 colon
HCT-116 colon = system: HCT-116 colon
HCT-15 colon = system: HCT-15 colon
HL-60(TB) leukemia = system: HL-60(TB) leukemia
HOP-62 NSCLC = system: HOP-62 NSCLC
HOP-92 NSCLC = system: HOP-92 NSCLC
HS 578T breast = system: HS 578T breast
HT29 colon = system: HT29 colon
IGROV1 ovarian = system: IGROV1 ovarian
K-562 leukemia = system: K-562 leukemia
KM12 colon = system: KM12 colon
LOX IMVI melanoma = system: LOX IMVI melanoma
M14 melanoma = system: M14 melanoma
MALME-3M melanoma = system: MALME-3M melanoma
MCF7 breast = system: MCF7 breast
MDA-MB-231 breast = system: MDA-MB-231 breast
MDA-MB-435 = system: MDA-MB-435
MOLT-4 leukemia = system: MOLT-4 leukemia
NCI-H226 lung = system: NCI-H226 lung

Question: What does the source list for `COc1ccc(N2C(=O)C(c3ccccc3)(c3ccccc3)C23C(=O)N(C)c2ccccc23)cc1` (stereo not drawn)?
Answer: GI50 (786-0 renal): > 100 µM; TGI (786-0 renal): > 100 µM; GI50 (A498 renal): > 100 µM; TGI (A498 renal): > 100 µM; GI50 (A549 NSCLC): > 100 µM; TGI (A549 NSCLC): > 100 µM; GI50 (ACHN renal): > 100 µM; TGI (ACHN renal): > 100 µM; GI50 (BT-549 breast): > 100 µM; TGI (BT-549 breast): > 100 µM; GI50 (CAKI-1 renal): > 100 µM; TGI (CAKI-1 renal): > 100 µM; GI50 (CCRF-CEM leukemia): > 100 µM; TGI (CCRF-CEM leukemia): > 100 µM; GI50 (COLO 205 colon): > 100 µM; TGI (COLO 205 colon): > 100 µM; GI50 (DU-145 prostate): > 100 µM; TGI (DU-145 prostate): > 100 µM; GI50 (EKVX NSCLC): > 100 µM; TGI (EKVX NSCLC): > 100 µM; GI50 (HCC-2998 colon): > 100 µM; TGI (HCC-2998 colon): > 100 µM; GI50 (HCT-116 colon): > 100 µM; TGI (HCT-116 colon): > 100 µM; GI50 (HCT-15 colon): > 100 µM; TGI (HCT-15 colon): > 100 µM; GI50 (HL-60(TB) leukemia): > 100 µM; TGI (HL-60(TB) leukemia): > 100 µM; GI50 (HOP-62 NSCLC): > 100 µM; TGI (HOP-62 NSCLC): > 100 µM; GI50 (HOP-92 NSCLC): > 100 µM; TGI (HOP-92 NSCLC): > 100 µM; GI50 (HS 578T breast): > 100 µM; TGI (HS 578T breast): > 100 µM; GI50 (HT29 colon): > 100 µM; TGI (HT29 colon): > 100 µM; GI50 (IGROV1 ovarian): > 100 µM; TGI (IGROV1 ovarian): > 100 µM; GI50 (K-562 leukemia): > 100 µM; TGI (K-562 leukemia): > 100 µM; GI50 (KM12 colon): > 100 µM; TGI (KM12 colon): > 100 µM; GI50 (LOX IMVI melanoma): > 100 µM; TGI (LOX IMVI melanoma): > 100 µM; GI50 (M14 melanoma): > 100 µM; TGI (M14 melanoma): > 100 µM; GI50 (MALME-3M melanoma): > 100 µM; TGI (MALME-3M melanoma): > 100 µM; GI50 (MCF7 breast): > 100 µM; TGI (MCF7 breast): > 100 µM; GI50 (MDA-MB-231 breast): 54 µM; TGI (MDA-MB-231 breast): > 100 µM; GI50 (MDA-MB-435): > 100 µM; TGI (MDA-MB-435): > 100 µM; GI50 (MOLT-4 leukemia): > 100 µM; TGI (MOLT-4 leukemia): > 100 µM; GI50 (NCI-H226 lung): > 100 µM; TGI (NCI-H226 lung): > 100 µM
